SMILES strings stand for the structures. “Also recorded” adds a separate entry of the source.

Data set [1] relates to CETP gene expression. In words: Combination effect of double unsaturated fatty acid and DLBS1449 on CETP gene expression. The format is cell-based, human. The conditions noted are these: HepG2, 30 μM fatty acid alone, 24 hours, FIG. 8. The protocol:
HepG2 cells were cultured at 6-well plate until 60% of cell density was reached. Change of medium was then performed, using serum-free medium and incubated for 24 hours. Those cells were then treated with 4 different treatments which were 30 μM of arachidonic acid, 30 μM of linoleic acid, combination of arachidonic acid with 75 μg/ml of DLBS1449 and combination of linoleic acid with 75 μg/ml of DLBS1449. These treatments were performed for 24 hours. Total RNA of HepG2 cells treated with DLBS1449 were isolated using Trizol solution according to the procedure available from the solution. Total RNA were then measured using NanoDrop machine and visualized using electrophoresis method. Further, RNA with good quality will be used to synthesize cDNA through RT-PCR process using PCR Thermocycler machine in a certain condition that has been optimized.

For data set [2] the following is noted: clinical trials, patients consuming the drug; cited from earlier work.

`CCCCC/C=C\C/C=C\CCCCCCCC(=O)O` [linoleic acid]: the CETP gene expression result in data set [1] is reported as “greater decrease”.
On to `CCCCC/C=C\C/C=C\C/C=C\C/C=C\CCCC(=O)O` [arachidonic acid], for which, in data set [1], the CETP gene expression result is “decrease the CETP gene expression”.
Take `CCOC(=O)N1c2ccc(C(F)(F)F)cc2[C@@H](N(Cc2cc(C(F)(F)F)cc(C(F)(F)F)c2)C(=O)OC)C[C@H]1CC` [torcetrapib]: the “patients' blood pressure” value in data set [2] is recorded as “increase of blood pressure; also recorded: increase in patients' blood pressure”.

These data come from patent US8999404B2, “Phaleria macrocarpa extract, extraction process and its use as cholesteryl ester transferase protein (CETP) inhibitor” (Pt. Dexa Medica, priority 2011, dated 2015).
